Measurements taken from US4460582A, “3-Carboxybenzyl cephems” (Beecham Group P.L.C., priority 1981, dated 1984).
Where a name gives a salt, the structure may show the parent alone.

Experiments:
Format in all cases: cell-based
[1] = system: Klebsiella aerogenes A; experiment: MIC on agar
Source text: (§1) The Minimum Inhibitory concentrations (MIC) of the compound
(§2) of Example 6 found necessary to prevent growth of various

[2] = system: Staphylococcus aureus Russell; experiment: MIC on agar
Source text: as §1, §2

[3] = system: Pseudomonas aeruginosa Dalgleish; experiment: MIC on agar
Source text: as §1, §2

[4] = system: Proteus mirabilis C977; experiment: MIC on agar
Source text: as §1, §2

[5] = system: Staphylococcus aureus Oxford; experiment: MIC on agar
Source text: as §1, §2

[6] = system: Pseudomonas aeruginosa NCTC 10662; experiment: MIC on agar; conditions: NCTC10662
Source text: as §1, §2

[7] = system: Streptococcus pyogenes CN10; experiment: MIC on agar
Source text: as §1, §2

[8] = system: Proteus rettgeri; experiment: MIC on agar; conditions: Providencia rettgeri
Source text: as §1, §2

[9] = system: Serratia marcescens US32; experiment: MIC on agar
Source text: as §1, §2

[10] = system: Bacillus subtilis; experiment: MIC on agar
Source text: as §1, §2

[11] = system: Enterobacter cloacae N1; experiment: MIC on agar
Source text: as §1, §2

[12] = system: Escherichia coli JT4; experiment: MIC on agar
Source text: as §1, §2

[13] = system: Streptococcus faecalis I; experiment: MIC on agar; conditions: Enterococcus faecalis
Source text: as §1, §2

[14] = system: Neisseria catarrhalis 1502; experiment: MIC on agar
Source text: as §1, §2

[15] = system: Proteus morganii; experiment: MIC on agar; conditions: Morganella morganii
Source text: as §1, §2

[16] = system: Escherichia coli JT425; experiment: MIC on agar
Source text: as §1, §2

[17] = system: Serratia marcescens US 20; experiment: MIC in nutrient broth; conditions: US20
Source text: (§3) The minimum inhibitory concentrations (MIC) of the
(§4) compound of Examples 2 and 4 found necessary to prevent
(§5) growth of various bacteria in nutrient broth were as […]

[18] = system: Klebsiella aerogenes A; experiment: MIC in nutrient broth
Source text: as §3, §4, §5

[19] = system: Enterobacter cloacae N 1; experiment: MIC in nutrient broth; conditions: N1
Source text: as §3, §4, §5

[20] = system: Staphylococcus aureus Russell; experiment: MIC in nutrient broth
Source text: as §3, §4, §5

[21] = system: Escherichia coli 0111; experiment: MIC in nutrient broth
Source text: as §3, §4, §5

[22] = system: Escherichia coli JT 39 (R^+); experiment: MIC in nutrient broth
Source text: as §3, §4, §5

[23] = system: Proteus morganii I 580; experiment: MIC in nutrient broth; conditions: Morganella morganii, I580
Source text: as §3, §4, §5

[24] = system: Staphylococcus aureus Oxford; experiment: MIC in nutrient broth
Source text: as §3, §4, §5

[25] = system: Citrobacter freundii E 8; experiment: MIC in nutrient broth; conditions: E8
Source text: as §3, §4, §5

[26] = system: Salmonella typhimurium CT 10; experiment: MIC in nutrient broth; conditions: Salmonella enterica
Source text: as §3, §4, §5

[27] = system: Proteus vulgaris W 091; experiment: MIC in nutrient broth; conditions: W091
Source text: as §3, §4, §5

[28] = system: Streptococcus pneumoniae CN 33; experiment: MIC in nutrient broth; conditions: CN33
Source text: as §3, §4, §5

[29] = system: Bacillus subtilis A; experiment: MIC in nutrient broth
Source text: as §3, §4, §5

[30] = system: Proteus rettgeri WM 16; experiment: MIC in nutrient broth; conditions: Providencia rettgeri, WM16
Source text: as §3, §4, §5

[31] = system: Shigella sonnei MB 11967; experiment: MIC in nutrient broth; conditions: MB11967
Source text: as §3, §4, §5

[32] = system: Pseudomonas aeruginosa A; experiment: MIC in nutrient broth
Source text: as §3, §4, §5

[33] = system: Proteus mirabilis 977; experiment: MIC in nutrient broth
Source text: as §3, §4, §5

[34] = system: Streptococcus faecalis I; experiment: MIC in nutrient broth; conditions: Enterococcus faecalis
Source text: as §3, §4, §5

[35] = system: Streptococcus pyogenes CN 10; experiment: MIC in nutrient broth; conditions: CN10
Source text: as §3, §4, §5

| SMILES | MIC [17] [µg/mL] | MIC [18] [µg/mL] | MIC [19] [µg/mL] | MIC [20] [µg/mL] | MIC [21] [µg/mL] | MIC [22] [µg/mL] | MIC [23] [µg/mL] | MIC [24] [µg/mL] | MIC [25] [µg/mL] | MIC [26] [µg/mL] | MIC [27] [µg/mL] | MIC [28] [µg/mL] | MIC [29] [µg/mL] | MIC [30] [µg/mL] | MIC [31] [µg/mL] | MIC [32] [µg/mL] | MIC [33] [µg/mL] | MIC [34] [µg/mL] | also measured |
| --- | --- | --- | --- | --- | --- | --- | --- | --- | --- | --- | --- | --- | --- | --- | --- | --- | --- | --- | --- |
| CC(C)(O/N=C(\C(=O)N[C@@H]1C(=O)N2C(C(=O)O)=C(Cc3ccc(C(=O)O)cc3)CS[C@H]12)c1csc(N)n1)C(=O)O [Example 6, (6R,7R)-3-(4-Carboxybenzyl)-7-[2,Z-(2-carboxyprop-2-oxyimino)-2-(2-aminothiazol-4-yl)-acetamido]-ceph-3-em-4-carboxylic acid trifluoroacetic acid salt] | – | – | – | – | – | – | – | – | – | – | – | – | – | – | – | – | – | – | MIC [1]: 0.2 µg/mL; MIC [2]: > 100 µg/mL; MIC [3]: 2.5 µg/mL; MIC [4]: 0.05 µg/mL; MIC [5]: 100 µg/mL; MIC [6]: 5 µg/mL; MIC [7]: 2.5 µg/mL; MIC [8]: 0.2 µg/mL; MIC [9]: 2.5 µg/mL; MIC [10]: > 100 µg/mL; MIC [11]: 1 µg/mL; MIC [12]: 2.5 µg/mL; MIC [13]: > 100 µg/mL; MIC [14]: < 0.02 µg/mL; MIC [15]: 2.5 µg/mL; MIC [16]: 25 µg/mL |
| CCO/N=C(\C(=O)N[C@@H]1C(=O)N2C(C(=O)O)=C(Cc3ccc(C(=O)O)cc3)CS[C@H]12)c1csc(N)n1 [Example 4, (6R,7R)-3-(4-Carboxybenzyl)-7-[2,Z-ethoxyimino-2-(2-aminothiazol-4-yl)-acetamido]-ceph-3-em-4-carboxylic acid trifluoroacetic acid salt] | 3.1 | 0.1 | 50 | 6.2 | 3.1 | 1.6 | 100 | 3.1 | 100 | 0.8 | 3.1 | 6.2 | 12.5 | 100 | 0.8 | > 100 | 0.2 | > 100 | – |
| CO/N=C(\C(=O)N[C@@H]1C(=O)N2C(C(=O)O)=C(Cc3ccc(C(=O)O)cc3)CS[C@H]12)c1csc(N)n1 [Example 2, (6R,7R)-3-(4-Carboxybenzyl)-7-[2,Z-methoxyimino-2-(2-aminothiazol-4-yl)-acetamido]ceph-3-em-4-carboxylic acid trifluoroacetic acid salt] | 12.5 | 0.2 | 3.1 | 12.5 | 6.2 | 6.2 | 1.6 | 12.5 | 25 | 0.4 | 12.5 | ≤ 0.1 | 25 | 12.5 | 0.4 | > 100 | 0.8 | > 100 | MIC [35]: ≤ 0.1 µg/mL |
